Measured values as given in patent US7235664B2, “Anthranilamides with heteroarylsulfonyl side chain, process of preparation, and use” (Sanofi-Aventis Deutschland GmbH, priority 2001, dated 2007).

- melting point: 163 °C
SMILES: CC[C@H](NC(=O)c1cc(F)ccc1NS(=O)(=O)c1cccc2cccnc12)c1ccccc1 [Example 52, (S)-5-Fluoro-2-(quinoline-8-sulfonylamino)-N-(1-phenylpropyl)-benzamide]
